Test results from US11215608B2, “Methods of determining cellular chemosensitivity” (Dana-Farber Cancer Institute, Inc., priority 2006, dated 2022).
Several values for one entry are separate records, joined by “and”; a condition that tells them apart may be missing. Identical values can stand only once. Like-named read-outs stand apart in the source and are kept apart here.

Experiments:
BCL-2:BIM complex [1] = biological target: T1, BCL-2:BIM complex (Homo sapiens, UniProt P10415); test: Displacement of BIM from immunoprecipitated BCL-2, detergent-free; type: binding; conditions: 1 μM, detergent-free conditions
T1 construct: A BCL-2 antibody was used to immunoprecipitate BCL-2 from CLL lysates from four independent patient samples; endogenous in cells; host or cells: freshly isolated primary human CLL cells
T1 sequence (P10415 whole entry, one chain of several): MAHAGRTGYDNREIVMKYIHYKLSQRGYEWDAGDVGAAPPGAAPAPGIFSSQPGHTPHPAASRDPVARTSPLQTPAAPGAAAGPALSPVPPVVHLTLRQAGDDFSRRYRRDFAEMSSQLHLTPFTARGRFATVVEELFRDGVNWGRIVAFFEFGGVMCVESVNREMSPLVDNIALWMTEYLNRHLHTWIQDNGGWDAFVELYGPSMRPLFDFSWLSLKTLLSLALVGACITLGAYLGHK

BCL-2 = BCL-2 (Homo sapiens, UniProt P10415); conditions: cited from earlier work
BCL-2, sequence (P10415 whole entry, species assumed): as the sequence (P10415 whole entry, one chain of several) above

FL5.12 cells = test: FL5.12 cell survival by Annexin V; type: cell-based, murine
Experimental: (§1) Cells were stained with fluorescent conjugates of Annexin-V (BioVision) and propidium iodide (PI) and analyzed on a FACSCalibur machine (Becton-Dickinson).
FL5.12 cells were cultured as described previously in Iscove's modified Dulbecco's medium, 10% fetal bovine serum, 1000 ug/ml G418 with or without IL-3 provided by 10% WEHI-3B supplement (supernatant of IL-3 secreting WEHI-3B cells). FL5.12 cells were stably transfected with a vector containing a neomycin resistance construct and either human BCL-2 cDNA (FL5.12-BCL-2) or no insert (wt). 2B4 cells were cultured in RPMI 1640 supplemented with 10% fetal bovine serum, 100 U/ml penicillin, 100 ug/ml streptomycin, 10 uM non-essential amino acids and 8 ul/L betamercaptoethanol. Stably transfected 2B4 cells were isolated after transfection with pLZR-GFP retroviral vector or vector with Flag-Mc1-1 (kind gift from Joe Opferman).
In order to test whether mitochondrial dependence on individual antiapoptotic protein function can be correlated with cellular behavior, cellular models of defined antiapoptotic dependence were investigated. First, it was determined if cellular requirement for BCL-2 for cellular survival correlates with the BCL-2 signature of mitochondrial sensitivity to sensitizer BH3 domains found in FIG. 1B. The pro-lymphocytic murine FL5.12 cell line requires IL-3 to maintain survival. […]

BCL-2:BIM complex [2] = biological target: T1, BCL-2:BIM complex; test: BCL-2 immunoprecipitation from treated primary CLL cells; type: cell-based; conditions: 100 nM, 24 hours
CLL cells [3] = test: Annexin-V death assay of freshly isolated primary CLL cells; type: cell-based, human; conditions: 48 hours
Experimental: as §1
15 ml of blood in heparin treated tubes was obtained from each anonymous CLL patient and processed without freezing. Equal volume of media (RPMI medium, 10% […], supplemented with […] and 10 mg/ml transferrin) was mixed with each sample and CLL cells isolated by centrifugation through Ficoll-PAQUE Plus (Amersham). Cells were washed twice in media and cultured at a density of 2.0×10^6 cells/ml for up to 48 hours. Samples for FIG. 11A were obtained from 24 consecutive patients identified with WBC >50,000/μl. All guidelines and regulations were followed in accordance with IRB protocols #99-224 (Dana-Farber Cancer Institute). Normal PBMC's were obtained from tubing discarded following platelet donation by anonymous normal donors and processed as above, except cultured without insulin and transferrin.
Experimental replicates were performed using lysates or mitochondria from different CLL samples. In main body, where a P value is given, it was obtained by using a two-tailed Students t-test, and P<0.05 was considered statistically significant. GraphPad Prism software was used to determine EC50 values by non-linear dose-response curve fitting and to perform Mann-Whitney nonparametric testing in Table 5.
Freshly isolated primary CLL cells were incubated with ABT-737 or negative control enantiomer. After 48 hours, death was assessed using Annexin-V staining.

CLL cells [4] = test: as above; type: cell-based, human; conditions: five samples
BCL-XL = BCL-XL (Homo sapiens, UniProt Q07817); conditions: cited from earlier work
BCL-XL, sequence (Q07817 whole entry, species assumed): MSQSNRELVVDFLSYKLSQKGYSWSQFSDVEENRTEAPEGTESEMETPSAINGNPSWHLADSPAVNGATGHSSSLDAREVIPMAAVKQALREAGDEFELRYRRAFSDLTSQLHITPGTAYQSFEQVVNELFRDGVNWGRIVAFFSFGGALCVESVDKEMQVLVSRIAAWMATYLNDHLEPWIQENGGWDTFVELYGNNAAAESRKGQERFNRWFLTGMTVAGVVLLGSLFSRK

BCL-w = biological target: T2, BCL-w (Homo sapiens, UniProt Q92843); conditions: cited from earlier work
T2 sequence (Q92843 1-193): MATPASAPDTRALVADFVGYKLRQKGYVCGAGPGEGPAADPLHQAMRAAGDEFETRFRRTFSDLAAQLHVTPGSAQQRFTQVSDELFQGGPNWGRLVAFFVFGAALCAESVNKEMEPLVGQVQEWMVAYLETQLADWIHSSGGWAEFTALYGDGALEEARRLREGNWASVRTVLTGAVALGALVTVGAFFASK

BAX [5] = test: BAX oligomerization in CLL cells; type: cell-based, human; conditions: 4 hours
Experimental: 10^7 freshly isolated CLL cells were incubated with DMSO, 10 nM, 100 nM, or 1 μM ABT-737 or negative control enantiomer for 4 hours, % dead assessed by Annexin-V staining and FACS analysis, then treated with 0.3% saponin and 10 μM BMH for 30 minutes on ice. Cells were then lysed, loaded onto a 10% BISTris polyacrlyamide gel, transferred, and immunoblotted for BAX.

[6] = system: SU-DHL4, SU-DHL6, SU-DHL8, SU-DHL 10; test: Lymphoma cell line sensitivity to agents; type: cell-based; conditions: four lymphoma cell lines compared
Experimental: Only cells that are dependent on BCL-2 for survival are predicted to respond to BCL-2 antagonists like ABT-737. […] To test this, cells were treated with vincristine.

BAX [7] = test: BAX oligomerization / activation in mitochondria of IL-3 starved FL5.12-BCL-2 cells; type: biochemical, murine
Experimental: Mitochondria were isolated from wt FL5.12 cells and FL5.12-BCL-2 cells in the presence of IL-3, and from FL5.12-BCL-2 cells following 24 hours of IL-3 deprivation. […] Mitochondrial pellets were subjected to chemical crosslinking as previously described (Letai et al., 2002).
This model predicts that BCL-2 acts upstream of BAX activation by intercepting activator BH3 molecules. To test this prediction, in FIG. 6E, immunoprecipitation was performed with an antibody that recognizes only the activated form of BAX which exposes an N-terminus epitope (Desagher ct al., 1999; Hsu and You le, 1997). wt or BCL-2 expressing FL5.12 cells were exposed to IL-3 withdrawal as indicated.

H146 and H1963 = conditions: in vitro and murine xenograft; cited from earlier work

In the case of `CN(C)CC[C@H](CSc1ccccc1)Nc1ccc(S(=O)(=O)NC(=O)c2ccc(N3CCN(Cc4ccccc4-c4ccc(Cl)cc4)CC3)cc2)cc1[N+](=O)[O-]` [ABT-737], the “displacement of BIM from BCL-2 into the supernatant” value (BCL-2:BIM complex [1]) is given as “displaces BIM from BCL-2 into the supernatant”, the “affinity to BCL-2” value (BCL-2) is given as “sub-nanomolar range” and the toxicity (FL5.12 cells; IL-3 replete wt FL5.12 cells) is given as “non-toxic”. The cell death (FL5.12 cells; IL-3 starved FL5.12-BCL-2 cells, 24 hours) was “induced cell death in the IL-3 starved”, the “amount of BIM bound to BCL-2” value (BCL-2:BIM complex [2]) was “causes a dramatic reduction in the amount of BIM bound to BCL-2” and the EC50 (CLL cells [3]; CLL cells of one patient per row (V1-V24), read-out: EC50 ABT-737) was 3.6 nM and 2.1 nM and 3.1 nM and 1.9 nM and 4.1 nM and 8.7 nM and 5.8 nM and 6 nM and 3.3 nM and 6.4 nM and 2.9 nM and 9.4 nM and 2.3 nM and 4.8 nM and 4 nM and 7.4 nM and 6.1 nM and 7 nM and 3.2 nM and 3.5 nM. For the same molecule, the EC50 (CLL cells [3]; Homo sapiens, CLL cell, 48 h, twenty-four CLL samples, read-out: mean EC50, apoptosis of CLL cells) was 4.5 nM, the EC50 (CLL cells [3]; Homo sapiens, CLL cell, 48 h, twenty-four CLL samples, read-out: range of EC50 over CLL samples) was 1.9 to 9.4 nM and the “response of CLL cells after four hours” value (CLL cells [4]) was “responded similarly compared to 48-hour treatment”. For the same molecule, the “affinity to BCL-XL” value (BCL-XL) was “sub-nanomolar range”, the “affinity to BCL-w” value (BCL-w) was “sub-nanomolar range” and the “oligomerization of BAX” value (BAX [5]) was “oligomerization of BAX within four hours”. The “cell sensitivity to the agent” value [6] was “BH3 profiling accurately predicted response to ABT-737”, the “cytochrome c release and BAX activation” value (BAX [7]; mitochondria from IL-3 starved cells) was “restored cytochrome c release and BAX activation” and the BAX oligomerization (BAX [7]; peptides 30 uM, ABT-737 10 uM, 35 minutes) was “results in BAX oligomerization”. For the same molecule, the “sensitivity of H146 and H1963 to treatment” value (H146 and H1963) was “sensitive to treatment with ABT-737 in vitro and in an in vivo murine xenograft model”.
